The values below come from ChEMBL document CHEMBL1131710, “N-substituted-3-arylpyrrolidines: potent and selective ligands at serotonin 1A receptor” (Bioorg Med Chem Lett, 1999).

The Ki is the equilibrium dissociation constant of an inhibitor or competing ligand from its target. A low value points to a stronger hold on the target.

Assay type in all cases: tissue-based
For assay [1], the target named is 5-hydroxytryptamine receptor 2A (Rattus norvegicus, UniProt P14842). Briefly: In vitro binding affinity against 5-HT2A receptor of rat cerebral cortex using [3H]ketanserin.
Assay [2] addresses T1, 5-hydroxytryptamine receptor 1A (Rattus norvegicus, UniProt P19327).
T1 sequence (P19327 whole entry): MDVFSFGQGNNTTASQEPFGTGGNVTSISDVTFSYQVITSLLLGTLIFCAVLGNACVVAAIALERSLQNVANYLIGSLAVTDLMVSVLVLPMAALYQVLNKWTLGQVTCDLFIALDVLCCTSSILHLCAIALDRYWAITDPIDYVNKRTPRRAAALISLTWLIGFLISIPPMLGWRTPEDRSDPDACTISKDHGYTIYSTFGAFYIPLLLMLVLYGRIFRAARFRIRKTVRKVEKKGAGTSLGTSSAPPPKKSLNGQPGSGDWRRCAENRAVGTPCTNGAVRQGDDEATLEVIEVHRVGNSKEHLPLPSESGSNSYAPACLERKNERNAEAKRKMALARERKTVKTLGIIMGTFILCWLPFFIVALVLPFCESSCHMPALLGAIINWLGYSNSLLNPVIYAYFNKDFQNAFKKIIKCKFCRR
The experiment in a line: In vitro binding affinity against 5-HT1A receptor of rat hippocampus using [3H]8-OH-DPAT.

The target of the next assay is D(2) dopamine receptor (Rattus norvegicus, UniProt P61169). Briefly: In vitro binding affinity against Dopamine receptor D2 of rat striatum using [3H]raclopride.
Assay [3] concerns the target T2, Adrenergic receptor alpha-2 (Rattus norvegicus, UniProt P22086+P19328+P22909).
T2 sequence (P22086 whole entry): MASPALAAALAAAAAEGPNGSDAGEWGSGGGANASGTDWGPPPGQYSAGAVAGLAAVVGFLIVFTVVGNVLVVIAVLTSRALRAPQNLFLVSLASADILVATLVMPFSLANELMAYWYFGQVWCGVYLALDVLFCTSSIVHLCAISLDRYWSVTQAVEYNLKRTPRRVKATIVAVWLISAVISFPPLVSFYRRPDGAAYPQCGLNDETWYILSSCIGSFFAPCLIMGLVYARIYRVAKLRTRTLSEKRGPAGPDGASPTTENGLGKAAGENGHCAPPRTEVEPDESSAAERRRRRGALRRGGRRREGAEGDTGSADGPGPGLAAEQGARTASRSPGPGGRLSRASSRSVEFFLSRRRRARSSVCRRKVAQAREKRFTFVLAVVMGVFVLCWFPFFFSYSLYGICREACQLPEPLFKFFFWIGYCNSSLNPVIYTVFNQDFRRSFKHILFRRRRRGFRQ
T2 sequence (P19328 whole entry): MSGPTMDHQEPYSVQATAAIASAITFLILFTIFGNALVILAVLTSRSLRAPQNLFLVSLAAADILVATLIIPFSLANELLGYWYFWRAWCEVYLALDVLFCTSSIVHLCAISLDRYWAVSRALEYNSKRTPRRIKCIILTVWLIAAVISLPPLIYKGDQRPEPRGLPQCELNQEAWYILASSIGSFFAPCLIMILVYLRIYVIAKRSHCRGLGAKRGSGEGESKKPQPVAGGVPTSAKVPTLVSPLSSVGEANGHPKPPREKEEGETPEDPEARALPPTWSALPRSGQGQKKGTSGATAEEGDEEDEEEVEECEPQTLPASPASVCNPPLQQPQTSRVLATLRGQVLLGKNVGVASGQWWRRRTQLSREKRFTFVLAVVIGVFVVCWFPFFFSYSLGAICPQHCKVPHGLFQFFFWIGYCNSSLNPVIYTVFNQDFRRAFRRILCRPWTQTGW
T2 sequence (P22909 whole entry): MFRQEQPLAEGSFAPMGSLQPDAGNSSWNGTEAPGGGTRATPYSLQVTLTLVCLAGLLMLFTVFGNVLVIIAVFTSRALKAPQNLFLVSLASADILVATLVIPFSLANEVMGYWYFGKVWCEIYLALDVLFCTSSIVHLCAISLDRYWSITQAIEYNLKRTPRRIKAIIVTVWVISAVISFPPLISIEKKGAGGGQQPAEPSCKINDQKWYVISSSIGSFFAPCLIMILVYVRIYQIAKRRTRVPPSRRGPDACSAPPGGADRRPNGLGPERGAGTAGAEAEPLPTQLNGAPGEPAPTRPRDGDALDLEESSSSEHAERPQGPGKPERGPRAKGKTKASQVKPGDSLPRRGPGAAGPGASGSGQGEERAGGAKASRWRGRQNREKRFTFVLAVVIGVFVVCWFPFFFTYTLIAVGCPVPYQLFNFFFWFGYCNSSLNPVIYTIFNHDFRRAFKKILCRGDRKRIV
Briefly: In vitro binding affinity against Alpha-2 adrenergic receptor of rat cerebral cortex using [3H]RX-821002.

A further assay addresses D(1A) dopamine receptor (Rattus norvegicus, UniProt P18901). Briefly: In vitro binding affinity against Dopamine receptor D1 of rat striatum using [3H]SCH-23390.

Chain of D(1A) dopamine receptor (P18901 whole entry): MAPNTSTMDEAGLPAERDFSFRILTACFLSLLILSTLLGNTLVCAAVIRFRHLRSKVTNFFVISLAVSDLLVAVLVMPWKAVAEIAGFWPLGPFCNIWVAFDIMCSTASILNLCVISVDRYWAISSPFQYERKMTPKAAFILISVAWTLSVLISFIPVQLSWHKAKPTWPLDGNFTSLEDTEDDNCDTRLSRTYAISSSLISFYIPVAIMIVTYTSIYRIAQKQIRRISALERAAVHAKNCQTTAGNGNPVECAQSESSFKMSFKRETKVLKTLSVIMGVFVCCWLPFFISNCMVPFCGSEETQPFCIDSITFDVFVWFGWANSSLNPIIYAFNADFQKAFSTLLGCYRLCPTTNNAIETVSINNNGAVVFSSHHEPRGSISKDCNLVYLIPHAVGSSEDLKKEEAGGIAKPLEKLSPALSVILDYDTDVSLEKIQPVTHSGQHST
Chain of 5-hydroxytryptamine receptor 2A (P14842 whole entry): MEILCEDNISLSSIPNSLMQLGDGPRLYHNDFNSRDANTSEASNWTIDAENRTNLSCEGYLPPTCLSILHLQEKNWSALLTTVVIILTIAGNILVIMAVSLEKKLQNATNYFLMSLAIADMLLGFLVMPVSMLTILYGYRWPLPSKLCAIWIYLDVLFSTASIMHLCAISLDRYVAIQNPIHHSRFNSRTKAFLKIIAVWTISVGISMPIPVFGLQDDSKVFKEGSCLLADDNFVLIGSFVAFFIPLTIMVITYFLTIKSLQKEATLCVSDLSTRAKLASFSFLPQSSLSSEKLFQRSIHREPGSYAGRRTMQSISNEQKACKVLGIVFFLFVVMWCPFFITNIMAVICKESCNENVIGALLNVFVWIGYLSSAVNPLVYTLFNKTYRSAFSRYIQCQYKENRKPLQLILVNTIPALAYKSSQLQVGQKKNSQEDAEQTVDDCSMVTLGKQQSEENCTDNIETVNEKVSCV
Chain of D(2) dopamine receptor (P61169 whole entry): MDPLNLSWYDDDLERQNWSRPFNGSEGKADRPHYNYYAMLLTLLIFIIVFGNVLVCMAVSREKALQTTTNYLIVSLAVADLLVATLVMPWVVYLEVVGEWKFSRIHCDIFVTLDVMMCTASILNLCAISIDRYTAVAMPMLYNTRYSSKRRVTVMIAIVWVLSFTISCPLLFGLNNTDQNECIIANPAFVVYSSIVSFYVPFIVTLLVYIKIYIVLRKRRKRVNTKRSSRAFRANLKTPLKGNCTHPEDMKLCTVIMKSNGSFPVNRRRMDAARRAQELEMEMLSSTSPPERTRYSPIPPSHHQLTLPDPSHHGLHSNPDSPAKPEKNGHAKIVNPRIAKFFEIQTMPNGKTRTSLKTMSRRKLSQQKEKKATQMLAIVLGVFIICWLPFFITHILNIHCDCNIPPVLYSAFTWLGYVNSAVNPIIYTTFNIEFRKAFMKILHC

In the case of `O=C1c2ccccc2S(=O)(=O)N1CCCCN1CCC(c2ccc(Cl)cc2)C1` (stereo not given), the Ki in assay [1] turned out to be 232 nM; in assay [2], 2.6 nM; at D(2) dopamine receptor it was 327 nM; in assay [3] it was 56 nM; at D(1A) dopamine receptor it was 1570 nM.

Regarding `O=C(c1cccc(CN2CCC(c3ccc(Cl)cc3)C2)c1)N1CCCCC1` (stereo not given), the inhibitory constant (Ki) in assay [1] was 46 nM; in assay [2], 15.3 nM; at D(2) dopamine receptor it was 334 nM; in assay [3], 44 nM; on D(1A) dopamine receptor, 37600 nM.

As for `O=C1c2ccccc2S(=O)(=O)N1CCCCN1CCC(c2ccc(F)cc2)C1` (stereo not given), the Ki was above 367 nM in assay [1]; 4.2 nM in assay [2]; 263 nM on D(2) dopamine receptor; 334 nM in assay [3]; 6670 nM on D(1A) dopamine receptor.

Regarding `O=C1c2ccccc2CN1CCCCN1CCC(c2ccc(Cl)cc2)C1` (stereo not given), the Ki worked out at 184 nM in assay [1]; 30.4 nM in assay [2]; 185 nM at D(2) dopamine receptor; 12 nM in assay [3]; 1620 nM on D(1A) dopamine receptor.

On to `O=C(c1cccc(CN2CCC(c3ccccc3)C2)c1)N1CCCCC1` (stereo not given), for which the inhibition constant (Ki) was determined as 320 nM in assay [1]; 30.6 nM in assay [2]; 783 nM at D(2) dopamine receptor; 24 nM in assay [3]; 88100 nM at D(1A) dopamine receptor.

On to `O=C1c2ccccc2S(=O)(=O)N1CCCCN1CCC(c2ccccc2)C1` (stereo not given), for which the Ki in assay [1] turned out to be 34 nM; in assay [2], 2.7 nM; on D(2) dopamine receptor, 195 nM; in assay [3], 16 nM; on D(1A) dopamine receptor it was 12500 nM.

As to `O=C1c2ccccc2CN1CCCCN1CCC(c2ccccc2)C1` (stereo not given), the inhibitory constant (Ki) in assay [1] was 46 nM; in assay [2], 11.5 nM; on D(2) dopamine receptor it was 77 nM; in assay [3], 11 nM; at D(1A) dopamine receptor, 1950 nM.
